The values that follow come from US20030215817A1, “Modulation of gene expression in formation of fatty atherosclerotic lesions” (priority 2003, published 2003).

Where a name gives a salt, the structure may show the parent alone.

One data set has as its system smooth muscle cell. As to conditions: in vitro (Corsini et al. 1996); cited from earlier work.
Data set [1] concerns cholesterol acyl transferase. As to conditions: Soma et al. 1998; cited from earlier work.
For another data set, the system named is Rec1_20 (TTAC 210) mRNA. The experiment in a line: quantified RT-PCR, Rec1_20. It counts as in vivo, rabbit. As to conditions: for Relative Abundance Rec1_20, 20 pg F: hypercholesterolemic plus lercanidipine racemate, eight weeks, H2 (normocholesterolemic)=1.0. Here is the method:
(§1) Nineteen of the isolated DST clones were further validated using RT-PCR analyses; the data are presented in FIGS. 6-24 and in Tables 5-23, below. For each DST examined, the optimal annealing temperature and reagent conditions were determined for the corresponding set of primers (see Table 25) based on results from a preliminary experiment. In eight separate reactions, each set of primers was assayed to find the optimal conditions by adjusting the following four parameters: primer concentration, dNTP concentration, MgCl2 concentration, and number of Taq polymerase units. Once optimal conditions were determined, each DST was run in duplicate multiple simultaneous reactions which usually included at least four dilutions of template (cDNA library), plus control reactions lacking template, and six sequential data points for numbers of cycles.
(§2) Reactions were performed using “Hot Start” PCR with the Clontech TaqStart antibody system (Cat. #5400-1). Each reaction contained 1 ml of the cDNA library dilution as template, determined amounts of AmpliTaq DNA polymerase (cat. #N808-0156), MgCl2, dNTPs (GibcoBRL cat. #10297-018), primer, and Clontech TaqStart Antibody in a 20 ml final reaction volume using 10×Taq buffer II (without MgCl2). Typically, a master mix containing all components except the template was prepared and aliquoted. Various templates were then added to these master mix samples and 20 ml volumes were subsequently dispensed into individual reaction tubes. At various times during the PCR run, tubes were removed sequentially on a predetermined schedule in order to quantitate expression of the target DST over a “window” of cycle times. After amplification, the samples were quantified via fluorimetry.
(§3) PCR was performed at annealing temperatures that were five degrees above the average melting temperature of each primer pair. For primers greater than 10 bases (in a 0.05M salt solution), melting temperature was calculated using the following formula: Tm=59.9+41[% GC]−[675/Primer Length], where %GC is the decimal value. Following determination of the average melting temperature of the primer pair, the annealing temperature was determined by adding five degrees to the average melting temperature. PCR was performed using the following program: 1) 95 degrees Celsius, 3 minutes; 2) 95 degrees Celsius, 30 seconds; 3) TM+5 degrees Celsius, 30 seconds; 4) 72 degrees Celsius, for a time dependent on target length at 16 bp/second; 5) repeat steps 2-4 33 more cycles; 6) 72 degrees Celsius, 3 minutes; 7) 14 degrees Celsius, forever.
(§4) Following temperature cycling, 2 ml of the PCR reaction was added to 140 ml of a 1:280 dilution of PicoGreen (Molecular Probes cat. #P-11495 (10×100 ml)) in TE pH 7.5 in a 96-well Costar UV microtiter plate (Fisher cat. #07-200623). The samples were mixed gently for 1.5 minutes and allowed to equilibrate at room temperature in the dark for 15 minutes. The concentration of the PCR products was quantified by fluorimetry using a PerSeptive Biosystems CytoFluor series 4000 multi-well plate reader.
(§5) Background fluorescence was determined by using duplicate control samples that were cycled with all reaction components except the template. The mean value from these duplicate background control samples was subtracted from the corresponding experimental values prior to analyzing results. The sensitivity of the PicoGreen dsDNA assay is reported to be 250 pg/ml (50 pg dsDNA in a […] assay volume) using a fluorescence microplate reader such as was used in these measurements. […]

The next data set concerns REC1_19 (TGTT 393) mRNA. Briefly: quantified RT-PCR, Rec1_19. It counts as in vivo, rabbit. The note with it: for Relative Abundance Rec1_19, 100 pg F: hypercholesterolemic plus lercanidipine racemate, eight weeks, H2 (normocholesterolemic)=1.0. The protocol:
as §1, §2, §3, §4, §5

Data set [2] can be described thus: preliminary kinetic studies: plasma levels after subcutaneous administration. As to conditions: rabbit, sc, rabbits, after 7 days from the administration. It counts as in vivo. The protocol:
The doses of lercanidipine used were determined from preliminary kinetic studies.

The test system of data set [3] is REC1_8 (MspI CCCG 243) mRNA. Briefly: quantified RT-PCR, Rec1_8. It counts as in vivo, rabbit. As to conditions: for Relative Abundance Rec1_8, 20 pg F: hypercholesterolemic plus lercanidipine racemate, eight weeks, H2 (normocholesterolemic)=1.0. Here is the method: as §1, §2, §3, §4, §5
For data set [4] the following is noted: in vivo studies (Soma 1998); cited from earlier work.
In another data set the test system is REC1_17 (TCGT 199) mRNA. The experiment in a line: quantified RT-PCR, Rec1_17. It counts as in vivo, rabbit. The note with it: for Relative Abundance Rec1_17, 20 pg F: hypercholesterolemic plus lercanidipine racemate, eight weeks, H2 (normocholesterolemic)=1.0. The protocol:
as §1, §2, §3, §4, §5

For data set [5] the following is noted: (R)-enantiomer compared with the other enantiomer of lercanidipine; cited from earlier work.
A further data set concerns Rec1_22 (TGGG 164) mRNA. Briefly: quantified RT-PCR, Rec1_22. It counts as in vivo, rabbit. The note with it: for Relative Abundance Rec1_22, 20 pg D: hypercholesterolemic plus lercanidipine R (−), eight weeks, H2 (normocholesterolemic)=1.0. Here is the method: as §1, §2, §3, §4
Background fluorescence was determined by using duplicate control samples that were cycled with all reaction components except the template. The mean value from these duplicate background control samples was subtracted from the corresponding experimental values prior to analyzing results. The sensitivity of the PicoGreen dsDNA assay is reported to be 250 pg/ml (50 pg dsDNA in a […] assay volume) using a fluorescence microplate reader such as was used in these measurements.
FIG. 22 is a graphical representation of the results of RT-PCR using 20 pg of clone REC1—22 template, in which the amount of PCR product (measured in arbitrary fluorescence units) is plotted against number of cycles, where polyA enriched mRNA was extracted from aortas of rabbits that were normocholesterolemic (filled diamonds, “H2”) and hypercholesterolemic plus lercanidipine R (−), eight weeks (filled squares, “D”).

[6] abbreviates: hypercholesterolemic animals receiving lercanidipine.

Turning to `COC(=O)C1=C(C)NC(C)=C(C(=O)OC(C)(C)CN(C)CCC(c2ccccc2)c2ccccc2)C1c1cccc([N+](=O)[O-])c1` (racemic) [lercanidipine, lercanidipine hydrochloride], the “smooth muscle cell migration and proliferation” value with smooth muscle cell was “effectively reduce”. The “cholesterol acyl transferase activity” value in data set [1] is “modulate”. The “Relative Abundance Rec1_20, 20 pg F” value in the data set with Rec1_20 (TTAC 210) mRNA (cycle 26) is on record as 0.0; with Rec1_20 (TTAC 210) mRNA (cycle 28), 0.1; with Rec1_20 (TTAC 210) mRNA (cycle 30), 0.2; with Rec1_20 (TTAC 210) mRNA (cycle 32), 0.2; in the data set with Rec1_20 (TTAC 210) mRNA (cycle 34), 0.2. Besides, the “expression of Rec1_20 at 8 weeks (RT-PCR study), in words” value in the data set on Rec1_20 (TTAC 210) mRNA (setting [6]) is on record as “decreased”. Besides, the “Relative Abundance Rec1_19, 100 pg F” value in the data set on REC1_19 (TGTT 393) mRNA (cycle 24) is 0.0; in the data set on REC1_19 (TGTT 393) mRNA (cycle 26), 0.0; with REC1_19 (TGTT 393) mRNA (cycle 28), 0.0; in the data set on REC1_19 (TGTT 393) mRNA (cycle 30) it was 0.1; in the data set on REC1_19 (TGTT 393) mRNA (cycle 32) it was 0.3; in the data set on REC1_19 (TGTT 393) mRNA (cycle 34) it was 0.5. For the same compound, the “expression of Rec1_19 at 8 weeks (RT-PCR study), in words” value with REC1_19 (TGTT 393) mRNA (setting [6]) was “decreased”. Also, the concentration at 7 days in [2] (subcutaneous administration of 1 mg/kg) turned out to be 500 ng/g; in data set [2] (subcutaneous administration of 3 mg/kg), 3200 ng/g. Moreover, the “Relative Abundance Rec1_8, 20 pg F” value in data set [3] (cycle 26) came to 4.6; in [3] (cycle 28), 2.2; in data set [3] (cycle 30), 3.5; in data set [3] (cycle 32), 4.8; in data set [3] (cycle 34), 2.1; in data set [3] (cycle 36), 2.1. Moreover, the “expression of Rec1_8 at 8 weeks (RT-PCR study), in words” value in [3] (hypercholesterolemic animals receiving lercanidipine racemate) is “elevated”. Also, the carotid intimal hyperplasia result in [4] is reported as “inhibit”. Also, the “Relative Abundance Rec1_17, 20 pg F” value in the data set on REC1_17 (TCGT 199) mRNA (cycle 24) is given as 0.01; with REC1_17 (TCGT 199) mRNA (cycle 26), 0.00; with REC1_17 (TCGT 199) mRNA (cycle 28) it was 0.09; with REC1_17 (TCGT 199) mRNA (cycle 30), 0.08; with REC1_17 (TCGT 199) mRNA (cycle 32) it was 0.21; with REC1_17 (TCGT 199) mRNA (cycle 34), 0.43. For the same compound, the “expression of Rec1_17 at 8 weeks (RT-PCR study), in words” value in the data set with REC1_17 (TCGT 199) mRNA (setting [6]) is given as “decreased”.
`COC(=O)C1=C(C)NC(C)=C(C(=O)OC(C)(C)CN(C)CCC(c2ccccc2)c2ccccc2)[C@@H]1c1cccc([N+](=O)[O-])c1.Cl` (single isomer, unassigned) [(R)-lercanidipine]: in data set [5], the “effectiveness in lowering blood pressure, less effective” value is 2-3 orders of magnitude. The “Relative Abundance Rec1_22, 20 pg D” value was determined as 0.0 with Rec1_22 (TGGG 164) mRNA (cycle 26); 0.0 in the data set with Rec1_22 (TGGG 164) mRNA (cycle 28); 0.5 with Rec1_22 (TGGG 164) mRNA (cycle 30); 0.7 with Rec1_22 (TGGG 164) mRNA (cycle 32); 0.8 in the data set on Rec1_22 (TGGG 164) mRNA (cycle 34). Further, the “expression of Rec1_22 at 8 weeks (RT-PCR study), in words” value in the data set on Rec1_22 (TGGG 164) mRNA (hypercholesterolemic animals receiving lercanidipine R (−) compared to normocholesterolemic animals) is reported as “decreased”.
